From publication PMC10443802, “Targeting a xenobiotic transporter to ameliorate vincristine-induced sensory neuropathy” (JCI Insight, 2023) come the findings set out here.

The target in one series is T1, mOATP1B2 (Mus musculus, UniProt Q9JJL3).
T1 sequence (Q9JJL3 1-689): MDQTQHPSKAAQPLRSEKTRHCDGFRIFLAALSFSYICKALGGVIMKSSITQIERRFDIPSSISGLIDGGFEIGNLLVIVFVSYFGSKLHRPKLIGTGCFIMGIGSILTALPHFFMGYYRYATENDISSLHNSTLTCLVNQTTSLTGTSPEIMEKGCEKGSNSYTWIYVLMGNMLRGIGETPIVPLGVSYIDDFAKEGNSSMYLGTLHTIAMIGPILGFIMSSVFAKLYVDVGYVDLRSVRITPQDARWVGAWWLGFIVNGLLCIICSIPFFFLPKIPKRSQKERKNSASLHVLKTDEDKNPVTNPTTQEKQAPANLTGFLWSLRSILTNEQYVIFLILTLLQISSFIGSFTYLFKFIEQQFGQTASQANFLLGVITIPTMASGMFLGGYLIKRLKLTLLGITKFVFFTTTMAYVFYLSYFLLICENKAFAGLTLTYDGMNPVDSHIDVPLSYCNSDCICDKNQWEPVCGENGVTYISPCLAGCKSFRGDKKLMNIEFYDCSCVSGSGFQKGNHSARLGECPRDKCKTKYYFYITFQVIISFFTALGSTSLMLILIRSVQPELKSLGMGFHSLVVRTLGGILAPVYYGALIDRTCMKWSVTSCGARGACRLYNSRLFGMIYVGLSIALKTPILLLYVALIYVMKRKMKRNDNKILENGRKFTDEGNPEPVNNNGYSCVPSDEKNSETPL
The experiment in a line: Nilotinib uptake in HEK293 cells overexpressing mOATP1B2. The series is classed as in vitro ADME. Particulars: HEK293 cells overexpressing mOATP1B2 vs vector control.

Series [1] can be described thus: Plasma pharmacokinetics of nilotinib in mice. The series is classed as in vivo, mouse. Conditions: OATP1B2(-/-) mice; for concentration at […]: DBA/1LacJ, mouse, plasma, oral, Plasma concentration of nilotinib. The protocol: Pharmacokinetic studies. Pharmacokinetic studies were performed following an established protocol […]
0.5% hydroxypropyl-methylcellulose in water) was administered at a dose of 10 mg/kg . Serial whole blood samples (0.25, 0.5, 1, 2, 4, and 6 h) were collected from the submandibular vein for the initial three time - points, from the retro-orbital sinus vein for the subsequent two time-points, and cardiac puncture at the terminal time-point. Blood samples were centrifuged at 11,000 rpm for 5 min, and the plasma supernatants collected and stored at -80°C until analysis by a validated method based on reversed -phase liquid chromatography coupled to tandem mass-spectrometric detection (LC-MS/MS). Livers were collected from the same animals at endpoint and, to prevent continuing metabolic activity, tissues were snap frozen using liquid nitrogen. […]
mg/kg or 100 mg/kg, and after 1.5 h, plasma, liver, and whole DRG were collected. All plasma and tissue specimens were stored at -80°C until further processing. […]
were collected at the final time point. […]
specimens were stored at -80°C until further processing. All tissues were homogenized with 5-mm […]
Finally, the beads were removed, and
WinNonlin version 8.0 (Certara). […]
of the data from the concentration-time curves.
Determination of drug levels. […]
column was maintained at 50°C.

The subject of a further series is OATP1B2. Briefly: Plasma level and DRG/plasma ratio of α-tocopherol in mice (biomarker of OATP1B2 function). The series is classed as in vivo, mouse. Conditions: WT mice treated with the inhibitor; plasma.
Another series concerns P388D1. Conditions: vincristine 1 μM, 30 min, nilotinib 10 μM.
A further series addresses hOATP3A1 (Homo sapiens, UniProt Q9UIG8). Briefly: Vincristine uptake screen, HeLa cells overexpressing hOATP3A1. The format is in vitro ADME. How it is done: Relative uptake is expressed as percentage change compared with empty vector controls (n = 4–14 per group). […] Human OATP1B1 and OATP1B3 transporter–overexpressed cells were used as positive controls; empty vector controls were used as the negative control. […] Mechanical allodynia (C), thermal hyperalgesia (D), and sciatic nerve maximal action potential amplitudes (E) are expressed as percentage change relative to baseline values (n = 6–8 per group). Statistical analysis was performed using a 2-way ANOVA with Bonferroni’s post hoc test. **P < 0.01, ***P < 0.001, ****P < 0.0001, compared with baseline values. […] Data are shown as mean ± SEM. […]
transfected with transporters of interest, including hOAT1, hOAT3, hOAT4, hOATP1A2, hOATP3A1, hOATP4A1, hOATP5A1, hOATP1C1, hOATP1B1, hOATP1B3, hOATP2B1, hOCT1, hOCT2, hOCTN1, hOCTN2, hASBT, hNTCP, hNPT1, hMATE1, hOSTα/β, hPEPT1, hPEPT2, rOatp1a1, rOatp1a4, rOatp1a5, rOatp1b2, rNtcp, rAsbt, rOat1, and rOct1. Cells were transfected with expression plasmid or vector control lacking any insert using Lipofectin reagent (Invitrogen). Sixteen hours thereafter, cells were washed with transport media (OPTIMEM, Invitrogen) and treated with radiolabeled drug. […] The cellular radioactivity was quantified by liquid scintillation counting as described above. […]

A further series has as its system CCRF. Briefly: Cytotoxicity of vincristine with or without nilotinib, MTT assay, CCRF. The series is classed as cell-based, human. Particulars: CCRF cells, vincristine alone, individual replicates. In general terms: Tetrazolium dyes change colour on reduction, which living cells bring about.
The subject of the next series is HL-60. Briefly: Cytotoxicity of vincristine with or without nilotinib, MTT assay, HL-60. The format is cell-based, human. Particulars: individual replicates.
A further series has as its system OATP1B3 protein variants. Briefly: Vincristine transport by OATP1B3 single-nucleotide variants. The format is in vitro ADME, human. Conditions: single-nucleotide substitutions. The protocol: Figure S2. […] (A) Single […]
nucleotide polymorphisms (SNPs) activity percentage of OATP1B3 over-expressed cell after treated […]
Statistical analysis was performed using one-way ANOVA with Dunnett’s […]
(B) Schematic overview of […]
week (cumulative dose of 4 mg/kg). Von-Frey tests were performed on day -1, 9, 16, 18, and 23. Thermal hyperalgesia (Hargreaves test) and nerve conduction studies of the sciatic and caudal nerve were measured on days -1 and 23. Tissue samples for morphologic evaluation were obtained on day 24. (C) […]
and OATP1B2- deficient groups.
Normalized mechanical allodynia (E) was expressed as a percentage change relative to baseline values (n = 6-8 per group). Statistical

Each structure is given as a SMILES string. “And” between values parts separate entries of the source, which are not always exact repeats. Equal values may be shown once.

Sequence of hOATP3A1 (Q9UIG8 whole entry): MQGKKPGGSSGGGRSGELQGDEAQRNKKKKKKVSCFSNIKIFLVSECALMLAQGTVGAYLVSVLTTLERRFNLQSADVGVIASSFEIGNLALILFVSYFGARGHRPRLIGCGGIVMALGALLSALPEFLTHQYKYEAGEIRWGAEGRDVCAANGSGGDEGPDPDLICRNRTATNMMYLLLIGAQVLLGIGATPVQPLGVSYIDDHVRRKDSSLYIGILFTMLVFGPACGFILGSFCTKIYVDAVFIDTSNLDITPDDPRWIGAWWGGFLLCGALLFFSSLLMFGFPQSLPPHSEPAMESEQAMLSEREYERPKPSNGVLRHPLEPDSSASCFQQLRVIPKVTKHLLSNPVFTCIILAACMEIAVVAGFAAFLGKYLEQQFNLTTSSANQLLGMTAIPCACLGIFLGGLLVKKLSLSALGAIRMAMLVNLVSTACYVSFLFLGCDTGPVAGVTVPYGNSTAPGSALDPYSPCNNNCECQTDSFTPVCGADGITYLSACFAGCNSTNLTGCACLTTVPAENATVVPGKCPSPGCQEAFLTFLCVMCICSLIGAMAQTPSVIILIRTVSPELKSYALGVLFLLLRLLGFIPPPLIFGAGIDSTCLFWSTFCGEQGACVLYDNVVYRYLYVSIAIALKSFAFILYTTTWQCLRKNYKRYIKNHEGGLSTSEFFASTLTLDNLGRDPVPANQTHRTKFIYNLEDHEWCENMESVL
Description for P388D1: (A) Gene expression of the OATP1B2 gene in L1210 and P388D1 murine leukemia cells
normalized to total protein levels. All data presented represent the mean (bars) ± SEM (error bars).

In the case of `Cc1cn(-c2cc(NC(=O)c3ccc(C)c(Nc4nccc(-c5cccnc5)n4)c3)cc(C(F)(F)F)c2)cn1` [Nilotinib, nilotinib], on mOATP1B2, the “Nilotinib uptake (% of control)” value is 68.9093 % of control and 50.5858 % of control and 83.427 % of control. Further, the concentration at […] in series [1] (25 mg/kg) was determined as 8020 ng/mL; in series [1] (100 mg/kg), 25800 ng/mL. The “Plasma concentration of nilotinib” value is 9973.68 ng/mL and 13343.6 ng/mL in series [1] (25mg/kg); 22063.7 ng/mL and 33922 ng/mL in series [1] (100mg/kg). The “Level of α-tocopherol (% of wild-type baseline), Plasma” value in the series with OATP1B2 was 242.352% and 175.541% and 133.994%. In addition, the “Influence on uptake of vincristine” value in the series on P388D1 is recorded as “did not influence the uptake of vincristine”.

As usually defined, the IC50 is the concentration needed to halve the response being measured. `CC[C@]1(O)C[C@H]2CN(CCc3c([nH]c4ccccc34)[C@@](C(=O)OC)(c3cc4c(cc3OC)N(C=O)[C@H]3[C@@](O)(C(=O)OC)[C@H](OC(C)=O)[C@]5(CC)C=CCN6CC[C@]43[C@@H]65)C2)C1` [Vincristine, vincristine]: the “Vincristine uptake (% of vector control)” value at hOATP3A1 is 104.00 % of vector control and 96.00 % of vector control and 76.00 % of vector control and 101.00 % of vector control and 79.00 % of vector control and 120.00 % of vector control and 100.00 % of vector control and 111.00 % of vector control. The IC50 with CCRF was 4.56 nM and 4.49 nM and 1.65 nM and 7.48 nM and 6.4 nM and 5.53 nM and 3.87 nM and 3.24 nM and 7.33 nM; in the series with HL-60 (HL-60 cells, vincristine alone), 9.13 nM and 3.89 nM and 6.71 nM and 7.31 nM and 6.48 nM and 6.07 nM and 6.3 nM and 8.17 nM and 5.71 nM; in the series with HL-60 (Homo sapiens, HL-60, HL-60 cells, vincristine + 1μM Nilotinib) it was 6.98 nM. Besides, the “Transport by OATP1B3 protein variants” value in the series on OATP1B3 protein variants was “impaired ability to transport vincristine”.
